{
  "source": "PubChem BioAssay (NCI)",
  "experiment_in_all_cases": "DTP human tumour cell line panel, 48 h",
  "key": {"CAKI-1 renal": {"system": "CAKI-1 renal"}, "NCI-H23 lung": {"system": "NCI-H23 lung"}, "OVCAR-4 ovarian": {"system": "OVCAR-4 ovarian"}, "NCI/ADR-RES ovarian": {"system": "NCI/ADR-RES ovarian"}, "SNB-19 CNS": {"system": "SNB-19 CNS"}, "HL-60(TB) leukemia": {"system": "HL-60(TB) leukemia"}, "RPMI-8226 leukemia": {"system": "RPMI-8226 leukemia"}, "UACC-257 melanoma": {"system": "UACC-257 melanoma"}, "MDA-N": {"system": "MDA-N"}, "CCRF-CEM leukemia": {"system": "CCRF-CEM leukemia"}, "LOX IMVI melanoma": {"system": "LOX IMVI melanoma"}, "HS 578T breast": {"system": "HS 578T breast"}, "SN12C renal": {"system": "SN12C renal"}, "786-0 renal": {"system": "786-0 renal"}, "OVCAR-5 ovarian": {"system": "OVCAR-5 ovarian"}, "SNB-75 CNS": {"system": "SNB-75 CNS"}, "HOP-92 NSCLC": {"system": "HOP-92 NSCLC"}, "EKVX NSCLC": {"system": "EKVX NSCLC"}, "NCI-H522 lung": {"system": "NCI-H522 lung"}, "TK-10 renal": {"system": "TK-10 renal"}, "HCC-2998 colon": {"system": "HCC-2998 colon"}, "HCT-116 colon": {"system": "HCT-116 colon"}, "RXF 393 renal": {"system": "RXF 393 renal"}, "DU-145 prostate": {"system": "DU-145 prostate"}, "IGROV1 ovarian": {"system": "IGROV1 ovarian"}, "K-562 leukemia": {"system": "K-562 leukemia"}, "OVCAR-3 ovarian": {"system": "OVCAR-3 ovarian"}, "MDA-MB-231 breast": {"system": "MDA-MB-231 breast"}, "MDA-MB-435": {"system": "MDA-MB-435"}, "OVCAR-8 ovarian": {"system": "OVCAR-8 ovarian"}, "NCI-H226 lung": {"system": "NCI-H226 lung"}, "ACHN renal": {"system": "ACHN renal"}, "BT-549 breast": {"system": "BT-549 breast"}, "SK-MEL-5 melanoma": {"system": "SK-MEL-5 melanoma"}, "SF-539 CNS": {"system": "SF-539 CNS"}, "A549 NSCLC": {"system": "A549 NSCLC"}, "SW-620 colon": {"system": "SW-620 colon"}, "U251 CNS": {"system": "U251 CNS"}, "MALME-3M melanoma": {"system": "MALME-3M melanoma"}, "T-47D breast": {"system": "T-47D breast"}, "HT29 colon": {"system": "HT29 colon"}, "SK-MEL-28 melanoma": {"system": "SK-MEL-28 melanoma"}, "SK-MEL-2 melanoma": {"system": "SK-MEL-2 melanoma"}, "SR leukemia": {"system": "SR leukemia"}, "HOP-62 NSCLC": {"system": "HOP-62 NSCLC"}, "M14 melanoma": {"system": "M14 melanoma"}, "SF-268 CNS": {"system": "SF-268 CNS"}, "SF-295 CNS": {"system": "SF-295 CNS"}, "MOLT-4 leukemia": {"system": "MOLT-4 leukemia"}, "NCI-H460 lung": {"system": "NCI-H460 lung"}, "KM12 colon": {"system": "KM12 colon"}, "A498 renal": {"system": "A498 renal"}, "PC-3 prostate": {"system": "PC-3 prostate"}, "COLO 205 colon": {"system": "COLO 205 colon"}, "MCF7 breast": {"system": "MCF7 breast"}, "SK-OV-3 ovarian": {"system": "SK-OV-3 ovarian"}, "UACC-62 melanoma": {"system": "UACC-62 melanoma"}, "HCT-15 colon": {"system": "HCT-15 colon"}, "UO-31 renal": {"system": "UO-31 renal"}},
  "note": "Values joined by “and” are separate entries in the source; they are usually repeats but may differ in a detail not shown here. Identical values can stand only once.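 Following 48 hours of exposure in 96-well plates, responses at five concentrations were used to interpolate endpoints linearly. GI50 is the concentration that inhibits growth by half. TGI is the concentration that stops growth completely.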",
  "data": [
    {"smiles": "Cc1nc2c(Br)cc(Br)cc2c(=O)n1-c1ccccc1NC1OC(CO)C(O)C(O)C1O", "note": "(stereo unspecified)", "values": [
      {"measurement": "TGI", "setting": "CAKI-1 renal", "result": "> 100", "unit": "µM"},
      {"measurement": "TGI", "setting": "NCI-H23 lung", "result": "> 100", "unit": "µM"},
      {"measurement": "TGI", "setting": "OVCAR-4 ovarian", "result": "> 100", "unit": "µM"},
      {"measurement": "TGI", "setting": "NCI/ADR-RES ovarian", "result": "> 100", "unit": "µM"},
      {"measurement": "TGI", "setting": "SNB-19 CNS", "result": "> 100", "unit": "µM"},
      {"measurement": "TGI", "setting": "HL-60(TB) leukemia", "result": "> 100", "unit": "µM"},
      {"measurement": "TGI", "setting": "RPMI-8226 leukemia", "result": "> 100", "unit": "µM"},
      {"measurement": "TGI", "setting": "UACC-257 melanoma", "result": "> 100", "unit": "µM"},
      {"measurement": "TGI", "setting": "MDA-N", "result": "> 100", "unit": "µM"},
      {"measurement": "TGI", "setting": "CCRF-CEM leukemia", "result": "> 100", "unit": "µM"},
      {"measurement": "TGI", "setting": "LOX IMVI melanoma", "result": "> 100", "unit": "µM"},
      {"measurement": "TGI", "setting": "HS 578T breast", "result": "> 100", "unit": "µM"},
      {"measurement": "TGI", "setting": "SN12C renal", "result": "> 100", "unit": "µM"},
      {"measurement": "TGI", "setting": "786-0 renal", "result": "> 100", "unit": "µM"},
      {"measurement": "TGI", "setting": "OVCAR-5 ovarian", "result": "> 100", "unit": "µM"},
      {"measurement": "TGI", "setting": "SNB-75 CNS", "result": "> 100", "unit": "µM"},
      {"measurement": "TGI", "setting": "HOP-92 NSCLC", "result": "> 100", "unit": "µM"},
      {"measurement": "TGI", "setting": "EKVX NSCLC", "result": "> 100", "unit": "µM"},
      {"measurement": "TGI", "setting": "NCI-H522 lung", "result": "> 100", "unit": "µM"},
      {"measurement": "TGI", "setting": "TK-10 renal", "result": "> 100", "unit": "µM"},
      {"measurement": "TGI", "setting": "HCC-2998 colon", "result": "> 100", "unit": "µM"},
      {"measurement": "TGI", "setting": "HCT-116 colon", "result": "> 100", "unit": "µM"},
      {"measurement": "TGI", "setting": "RXF 393 renal", "result": "> 100", "unit": "µM"},
      {"measurement": "TGI", "setting": "DU-145 prostate", "result": "> 100", "unit": "µM"},
      {"measurement": "TGI", "setting": "IGROV1 ovarian", "result": "> 100", "unit": "µM"},
      {"measurement": "TGI", "setting": "K-562 leukemia", "result": "> 100", "unit": "µM"},
      {"measurement": "TGI", "setting": "OVCAR-3 ovarian", "result": "> 100", "unit": "µM"},
      {"measurement": "TGI", "setting": "MDA-MB-231 breast", "result": "> 100", "unit": "µM"},
      {"measurement": "TGI", "setting": "MDA-MB-435", "result": "> 100", "unit": "µM"},
      {"measurement": "TGI", "setting": "OVCAR-8 ovarian", "result": "> 100", "unit": "µM"},
      {"measurement": "TGI", "setting": "NCI-H226 lung", "result": "> 100", "unit": "µM"},
      {"measurement": "TGI", "setting": "ACHN renal", "result": "> 100", "unit": "µM"},
      {"measurement": "TGI", "setting": "BT-549 breast", "result": "> 100", "unit": "µM"},
      {"measurement": "TGI", "setting": "SK-MEL-5 melanoma", "result": "> 100", "unit": "µM"},
      {"measurement": "TGI", "setting": "SF-539 CNS", "result": "> 100", "unit": "µM"},
      {"measurement": "GI50", "setting": "A549 NSCLC", "result": "27.8 µM and > 100 µM"},
      {"measurement": "TGI", "setting": "A549 NSCLC", "result": "> 100", "unit": "µM"},
      {"measurement": "TGI", "setting": "SW-620 colon", "result": "> 100", "unit": "µM"},
      {"measurement": "TGI", "setting": "U251 CNS", "result": "> 100", "unit": "µM"},
      {"measurement": "TGI", "setting": "MALME-3M melanoma", "result": "> 100", "unit": "µM"},
      {"measurement": "TGI", "setting": "T-47D breast", "result": "> 100", "unit": "µM"},
      {"measurement": "TGI", "setting": "HT29 colon", "result": "> 100", "unit": "µM"},
      {"measurement": "TGI", "setting": "SK-MEL-28 melanoma", "result": "> 100", "unit": "µM"},
      {"measurement": "TGI", "setting": "SK-MEL-2 melanoma", "result": "> 100", "unit": "µM"},
      {"measurement": "GI50", "setting": "SR leukemia", "result": "> 100 µM and 44.8 µM"},
      {"measurement": "TGI", "setting": "SR leukemia", "result": "> 100", "unit": "µM"},
      {"measurement": "TGI", "setting": "HOP-62 NSCLC", "result": "> 100", "unit": "µM"},
      {"measurement": "TGI", "setting": "M14 melanoma", "result": "> 100", "unit": "µM"},
      {"measurement": "TGI", "setting": "SF-268 CNS", "result": "> 100", "unit": "µM"},
      {"measurement": "TGI", "setting": "SF-295 CNS", "result": "> 100", "unit": "µM"},
      {"measurement": "TGI", "setting": "MOLT-4 leukemia", "result": "> 100", "unit": "µM"},
      {"measurement": "TGI", "setting": "NCI-H460 lung", "result": "> 100", "unit": "µM"},
      {"measurement": "TGI", "setting": "KM12 colon", "result": "> 100", "unit": "µM"},
      {"measurement": "TGI", "setting": "A498 renal", "result": "> 100", "unit": "µM"},
      {"measurement": "TGI", "setting": "PC-3 prostate", "result": "> 100", "unit": "µM"},
      {"measurement": "TGI", "setting": "COLO 205 colon", "result": "> 100", "unit": "µM"},
      {"measurement": "TGI", "setting": "MCF7 breast", "result": "> 100", "unit": "µM"},
      {"measurement": "TGI", "setting": "SK-OV-3 ovarian", "result": "> 100", "unit": "µM"},
      {"measurement": "TGI", "setting": "UACC-62 melanoma", "result": "> 100", "unit": "µM"},
      {"measurement": "TGI", "setting": "HCT-15 colon", "result": "> 100", "unit": "µM"},
      {"measurement": "TGI", "setting": "UO-31 renal", "result": "> 100", "unit": "µM"}
    ]}
  ]
}
